Key:
Type in all cases: cell-based
[1] = system: cultured cells of Taxus media; assay: Taxus media cell culture with coronatine; settings: concentration of coronatines 1 μM
Experimental: (§1) One gram (fresh weight) of the cultured cells thus obtained was inoculated to an Erlenmeyer flask containing 20 ml of liquid Woody Plant Medium to which the above-mentioned component was added to give the same concentration, and shake culture was carried out at 25° C. for 14 days. On the 14th day after starting the culture, 50 μl of coronatine [formula (IV)] was added as coronatines to the culture medium to give the final concentration of 0.001-1000 μM and the culture was further carried out for another 7 days.
(§2) After completing the culture, cultured cells of Taxus baccata LINN were harvested by filtration and lyophilized, then the dry weight was measured to obtain the yeild of the cultured cells per liter of the liquid medium.
Example 7 was repeated except that cultured cells of Taxus media, which was obtained in the process analogous to that of said example were used and coronatine was added as coronatines to give the final concentration of 1 μM.

[2] = system: cultured cells of Taxus baccata LINN; assay: Taxus baccata cell culture with coronatines
Experimental: A part of stem of Taxus baccata LINN which had been previously sterilized with 2% antiformin solution or 70% ethanol solution or the like, was placed on solid Woody Plant Medium (containing gelan gum of 0.25% by weight) to which naphthalenacetic acid had been added to give the concentration of 10^−5 M, and static culture was carried out at 25 ° C. in a dark place to provide callus of Taxus baccata LINN. One gram (fresh weight) of the callus was inoculated to an Erlenmeyer flask containing 20 ml of liquid Woody Plant Medium to which the above-mentioned component was added to give the same concentration and shake culture was carried out with a rotary shaker (amplification of 25 mm, 120 rpm) and the callus was subcultured in every 21 days to accelerate the growth rate thereof.
as §1, §2

[3] = system: cultured cells of Taxus baccata LINN; assay: Taxus baccata cell culture with cyclic polysaccharides
Experimental: A part of stem of Taxus baccata LINN which had been previously sterilized with 2% antiformin solution or 70% ethanol solution or the like, was placed on solid Woody Plant Medium (containing gelan gum of 0.25% by weight) to which naphthalenacetic acid had been added to give the concentration of 10^−5 M, and static culture was carried out at 25° C. in a dark place to provide callus of Taxus baccata LINN. 0.1 g (fresh weight) of the callus was inoculated to a well having an inner diameter of 18 mm, containing 1 ml of liquid Woody Plant Medium to which the above-mentioned component was added to give the same concentration and shake culture was carried out with a rotary shaker (amplification of 25 mm, 120 rpm) and the callus was subcultured in every 28 days to accelerate the growth rate thereof.
One gram (fresh weight) of the cultured cells thus obtained was inoculated to an Erlenmeyer flask containing 20 ml of liquid Woody Plant Medium to which the above-mentioned component was added to give the same concentration, and shake culture was carried out at 25° C. for 14 days. […]
After completing the culture, cultured cells of Taxus baccata LINN were harvested by filtration and lyophilized, then the dry weight was measured to obtain the yeild thereof per liter of the liquid medium.

[4] = system: cultured cells of Taxus baccata LINN; assay: Taxus baccata cell culture with cyclic polysaccharides and methyl ester of jasmonic acid
Experimental: […] After completing the culture, cultured cells of Taxus baccata LINN were harvested by filtration and lyophilized, then the dry weight was measured to obtain the yeild thereof per liter of the liquid medium.

[5] = system: cultured cells of Taxus media; assay: Taxus media cell culture with derivatives of jasmonic acids; settings: concentration of derivative of jasmonic acids 100 μM
Experimental: A part of germ of Taxus media which had been previously sterilized with 2% antiformin solution or 70% ethanol solution or the like, was placed on solid Woody Plant Medium (containing gelan gum of 0.25% by weight) to which naphthalenacetic acid had been added to give the concentration of 10^−5 M, and static culture was carried out at 25° C. in a dark place to provide callus of Taxus media. One gram (fresh weight) of the callus was inoculated to an Erlenmeyer flask containing 20 ml of liquid Woody Plant Medium to which above-mentioned component was added to give the same concentration, the and shake culture was carried out with a rotary shaker (amplification of 25 mm, 100 rpm) and the callus was subcultured in every 14 days to accelerate the growth rate thereof.
Two grams (fresh weight) of the cultured cells thus obtained was inoculated to an Erlenmeyer flask containing 20 ml of liquid Woody Plant […], and the culture was further carried out for another 14 days.
After completing the culture, cultured cells of Taxus media were harvested by filtration and lyophilized, then the dry weight was measured to obtain the yield of the cultured cells per liter of the liquid medium.

[6] = concentration of coronatines 0.001 μM
[7] = concentration of coronatines 0.01 μM
[8] = concentration of coronatines 0.1 μM
[9] = concentration of coronatines 1 μM
[10] = concentration of coronatines 10 μM
[11] = concentration of coronatines 100 μM
[12] = concentration of coronatines 1000 μM
[13] = concentration of β-cyclodextrin 0.01 mM
[14] = concentration of β-cyclodextrin 0.1 mM
[15] = concentration of β-cyclodextrin 1 mM
[16] = concentration of β-cyclodextrin 10 mM
[17] = β-cyclodextrin 0.01 mM + methyl ester of jasmonic acid 100 μM
[18] = β-cyclodextrin 0.1 mM + methyl ester of jasmonic acid 100 μM
[19] = β-cyclodextrin 1 mM + methyl ester of jasmonic acid 100 μM
[20] = β-cyclodextrin 10 mM + methyl ester of jasmonic acid 100 μM
[21] = 50 mM, 6-O-α-D-glucosyl-β-cyclodextrin was used
[22] = 6-O-α-D-glucosyl-β-cyclodextrin 50 mM + methyl ester of jasmonic acid 100 μM
[23] = methyl ester of jasmonic acid 100 μM, β-cyclodextrin 0 mM
[24] = cyclic polysaccharide 10 mM + methyl ester of jasmonic acid 100 μM

CCC1C=C(C(=O)NC2(C(=O)O)CC2CC)C2CCC(=O)C2C1 (stereo not drawn) [Example 7, coronatine]
yield of baccatin III [1]: 26.5 mg/L | yield of cephalomannine [1]: 15.1 mg/L | yield of cultured cells [1]: 18.6 g/L | yield of taxol [1]: 65.2 mg/L | yield of baccatin III [2, 6]: 5.0 mg/L | yield of cephalomannine [2, 6]: 3.8 mg/L | yield of cultured cells [2, 6]: 20.1 g/L | yield of taxol [2, 6]: 9.6 mg/L | yield of baccatin III [2, 7]: 8.9 mg/L | yield of cephalomannine [2, 7]: 10.2 mg/L | yield of cultured cells [2, 7]: 20.2 g/L | yield of taxol [2, 7]: 15.2 mg/L | yield of baccatin III [2, 8]: 18.7 mg/L | yield of cephalomannine [2, 8]: 12.3 mg/L | yield of cultured cells [2, 8]: 18.6 g/L | yield of taxol [2, 8]: 30.1 mg/L | yield of baccatin III [2, 9]: 28.4 mg/L | yield of cephalomannine [2, 9]: 11.4 mg/L | yield of cultured cells [2, 9]: 18.4 g/L | yield of taxol [2, 9]: 60.0 mg/L | yield of baccatin III [2, 10]: 38.5 mg/L | yield of cephalomannine [2, 10]: 8.8 mg/L | yield of cultured cells [2, 10]: 17.8 g/L | yield of taxol [2, 10]: 49.4 mg/L | yield of baccatin III [2, 11]: 44.1 mg/L | yield of cephalomannine [2, 11]: 7.9 mg/L | yield of cultured cells [2, 11]: 17.5 g/L | yield of taxol [2, 11]: 58.0 mg/L | yield of baccatin III [2, 12]: 13.2 mg/L | yield of cephalomannine [2, 12]: 6.5 mg/L | yield of cultured cells [2, 12]: 15.0 g/L | yield of taxol [2, 12]: 23.1 mg/L

OC[C@H]1O[C@@H]2O[C@H]3[C@H](O)[C@@H](O)[C@@H](O[C@H]4[C@H](O)[C@@H](O)[C@@H](O[C@H]5[C@H](O)[C@@H](O)[C@@H](O[C@H]6[C@H](O)[C@@H](O)[C@@H](O[C@H]7[C@H](O)[C@@H](O)[C@@H](O[C@H]8[C@H](O)[C@@H](O)[C@@H](O[C@H]1[C@H](O)[C@H]2O)O[C@@H]8CO)O[C@@H]7CO)O[C@@H]6CO)O[C@@H]5CO)O[C@@H]4CO)O[C@@H]3CO [Example 13, β-cyclodextrin]
yeild of cultured cells [3, 13]: 19.0 g/L | yield of baccatin III [3, 13]: 2.5 mg/L | yield of cephalomannine [3, 13]: 0.7 mg/L | yield of taxol [3, 13]: 4.0 mg/L | yeild of cultured cells [3, 14]: 19.1 g/L | yield of baccatin III [3, 14]: 3.0 mg/L | yield of cephalomannine [3, 14]: 2.6 mg/L | yield of taxol [3, 14]: 4.2 mg/L | yeild of cultured cells [3, 15]: 20.1 g/L | yield of baccatin III [3, 15]: 4.2 mg/L | yield of cephalomannine [3, 15]: 3.0 mg/L | yield of taxol [3, 15]: 6.5 mg/L | yeild of cultured cells [3, 16]: 20.1 g/L | yield of baccatin III [3, 16]: 5.0 mg/L | yield of cephalomannine [3, 16]: 2.2 mg/L | yield of taxol [3, 16]: 10.5 mg/L | yield of baccatin III [4, 17]: 54.6 mg/L | yield of cephalomannine [4, 17]: 8.0 mg/L | yield of cultured cells [4, 17]: 15.6 g/L | yield of taxol [4, 17]: 28.5 mg/L | yield of baccatin III [4, 18]: 62.6 mg/L | yield of cephalomannine [4, 18]: 9.6 mg/L | yield of cultured cells [4, 18]: 16.3 g/L | yield of taxol [4, 18]: 35.4 mg/L | yield of baccatin III [4, 19]: 76.0 mg/L | yield of cephalomannine [4, 19]: 10.1 mg/L | yield of cultured cells [4, 19]: 15.4 g/L | yield of taxol [4, 19]: 42.3 mg/L | yield of baccatin III [4, 20]: 54.2 mg/L | yield of cephalomannine [4, 20]: 12.5 mg/L | yield of cultured cells [4, 20]: 17.3 g/L | yield of taxol [4, 20]: 64.4 mg/L

OC[C@H]1O[C@H](OC[C@H]2O[C@@H]3O[C@H]4[C@H](O)[C@@H](O)[C@@H](O[C@H]5[C@H](O)[C@@H](O)[C@@H](O[C@H]6[C@H](O)[C@@H](O)[C@@H](O[C@H]7[C@H](O)[C@@H](O)[C@@H](O[C@H]8[C@H](O)[C@@H](O)[C@@H](O[C@H]9[C@H](O)[C@@H](O)[C@@H](O[C@H]2[C@H](O)[C@H]3O)O[C@@H]9CO)O[C@@H]8CO)O[C@@H]7CO)O[C@@H]6CO)O[C@@H]5CO)O[C@@H]4CO)[C@H](O)[C@@H](O)[C@@H]1O [Example 17, 6-O-α-D-glucosyl-β-cyclodextrin]
yeild of cultured cells [3, 21]: 20.5 g/L | yield of baccatin III [3, 21]: 3.5 mg/L | yield of cephalomannine [3, 21]: 1.3 mg/L | yield of taxol [3, 21]: 8.2 mg/L | yield of baccatin III [4, 22]: 53.0 mg/L | yield of cephalomannine [4, 22]: 11.1 mg/L | yield of cultured cells [4, 22]: 17.5 g/L | yield of taxol [4, 22]: 45.9 mg/L

CC/C=C\CC1C(=O)CCC1CC(=O)OC (stereo not drawn) [Reference Example 1, methyl jasmonate, reference compound]
yield of cultured cells [5]: 16.8 g/L | yield of taxane-type diterpenes, baccatin III [5]: 12.1 mg/L | yield of taxane-type diterpenes, cephalomannine [5]: 4.2 mg/L | yield of taxane-type diterpenes, taxol [5]: 48.0 mg/L | yield of baccatin III [4, 23]: 49.7 mg/L | yield of cephalomannine [4, 23]: 7.3 mg/L | yield of cultured cells [4, 23]: 15.4 g/L | yield of taxol [4, 23]: 25.9 mg/L

cyclofructan [Example 25]
yield of baccatin III [4, 24]: 51.4 mg/L | yield of cephalomannine [4, 24]: 9.1 mg/L | yield of cultured cells [4, 24]: 17.9 g/L | yield of taxol [4, 24]: 48.9 mg/L
